The test system of data set [1] is H226. Kind of data set: H226 growth inhibition (SAR tables). It is filed as cell-based. The following applies: for GI50: Homo sapiens, NCI-H226.
The nature of data set [2]: Metabolic stability MLM. As to conditions: for Met stab MLM, 15 min / Met stab MLM, 60 min: % parent remained per Table G2.
Data set [3] can be described thus: Aqueous solubility (Aq Sol). It is filed as physicochemical.
The subject of data set [4] is TEAD. Kind of data set: WB primary assay (SAR tables F1, F3A). The data set is classed as biochemical.
For data set [5], the system named is KNS62. Kind of data set: KNS62 growth inhibition (SAR tables). It is filed as cell-based.
Data set [6] in a line: Metabolic stability in mouse hepatic microsomes (Scripps Florida DMPK Core). It is filed as in vitro ADME. As to conditions: for metabolic stability (in words): Tables E1 and E2, human and mouse microsomes; for half-life / microsomal CLint: mouse, liver microsomes; for half-life: 1 mg/mL hepatic microsomes; for microsomal CLint: hepatic microsomes, read-out: Intrinsic Clearance, Mouse (Clint). (In general: Liver microsomes are a subcellular fraction often used to study metabolism.)

A short description of data set [7]: Metabolic stability in human hepatic microsomes (Scripps Florida DMPK Core). The data set is classed as in vitro ADME. As to conditions: liver microsomes; for half-life: 1 mg/mL hepatic microsomes; for microsomal CLint: hepatic microsomes, read-out: Intrinsic Clearance, Human (Clint).
A short description of data set [8]: Pharmacokinetics / oral bioavailability in male CD-1 mice. The data set is classed as in vivo. The following applies: for AUC(0-inf): Table F2A; for half-life: read-out: t1/2, β (converted). An excerpt:
Example G. Oral Bioavailability of MGH-CP-715 in Male CD-1Mice

Data set [9] in a line: logD 7.4. As to conditions: pH 7.4.
Data set [10] can be described thus: Metabolic stability CLint, human (Tables H1, H2).
Data set [11] can be described thus: Metabolic stability CLint, mouse (Tables H1, H2).
Data set [12] relates to H226 cells. Kind of data set: Cell proliferation assay (MTT), H226. As to conditions: 6 days, FIG. 8C.
For data set [13], the target named is TEAD2 (Homo sapiens, UniProt Q15562). Kind of data set: Inhibition of TEAD2 auto-palmitoylation in vitro. As to conditions: FIG. 1; 0.05 and 0.5 μM for 30 mins.
Chain of TEAD2 (Q15562 whole entry): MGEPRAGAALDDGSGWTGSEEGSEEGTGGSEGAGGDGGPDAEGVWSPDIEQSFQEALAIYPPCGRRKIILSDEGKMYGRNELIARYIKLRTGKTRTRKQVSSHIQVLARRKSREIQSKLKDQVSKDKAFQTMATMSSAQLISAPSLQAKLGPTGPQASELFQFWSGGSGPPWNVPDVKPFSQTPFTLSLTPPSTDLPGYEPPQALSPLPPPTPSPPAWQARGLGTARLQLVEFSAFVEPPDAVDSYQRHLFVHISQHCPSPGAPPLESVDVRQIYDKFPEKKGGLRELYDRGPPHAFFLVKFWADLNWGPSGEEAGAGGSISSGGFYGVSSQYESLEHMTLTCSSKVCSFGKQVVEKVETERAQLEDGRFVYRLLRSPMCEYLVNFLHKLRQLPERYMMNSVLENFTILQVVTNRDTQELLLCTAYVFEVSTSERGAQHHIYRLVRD
The nature of data set [14]: physchem. As to conditions: pH 7.4.
The nature of data set [15]: in vitro. The following applies: human.
Data set [16] can be described thus: in vitro. The following applies: mouse.
[17] abbreviates: male, CD-1, mouse, in vivo, 1 mg/Kg IV.
The mark [18] stands for this setting: male, CD-1, mouse, in vivo, 10 mg/Kg PO.

Read-outs that look alike come from different tables or passages of the source.

The term GI50 denotes the concentration at which growth is held to half of that of the control. The term bioavailability denotes dose-corrected exposure relative to a reference, in per cent. The term AUC(0-t) denotes exposure summed from dosing to a finite time, without extrapolation to infinity. Read a low AUC(0-t) as less exposure. For orientation: MRT means a mean duration of stay, worked out from the concentration-time curve. As usually defined, the AUC(0-inf) is the area under the concentration-time curve extrapolated to infinity. The low end stands for less exposure, the high end for more exposure. The Tmax is the time from dosing to the highest level. The logD is the decadic logarithm of the distribution of all forms, ionised or not, between an organic phase and buffer at a given pH. Low readings indicate a more hydrophilic compound, high ones a more lipophilic compound. The term CLint scaled denotes the capacity of the preparation to metabolise the compound, expressed as a volume cleared per time. High values mean rapid turnover, low ones slow turnover.

Regarding `O=C(Oc1ccccc1)N1CCN(C(=O)c2cccc(OCCC3CCCCC3)c2)CC1` [MGH-CP-714], the GI50 in data set [1] amounted to 2.64 µM. Besides, in data set [2] (15 min), the Met stab MLM, 15 min amounted to 29%. For the same compound, in [2] (60 min), the Met stab MLM, 60 min is less than 5%. The “Aq Sol” value in data set [3] was less than 2 µM. Further, in [4], the “WB: % inh. @ 1 μM” value amounted to 16% and the “WB: % inh. @ 10 μM” value turned out to be 94%. Further, in [5], the “KNS62: value at 1 μM” value came out at 10 and the “KNS62: value at 10 μM” value is 48.

Turning to `O=C(Nc1ccccc1)N1C[C@@H]2C[C@H]1CN2C(=O)c1cccc(OCCC2CCCCC2)c1` [MGH-CP-717], the “MLM stability (in words)” value in data set [2] is reported as “poor”. Further, the Met stab MLM, 15 min in [2] (15 min) was found to be 6%. The Met stab MLM, 60 min in data set [2] (60 min) was less than 5%. Further, in data set [4], the “activity in primary assay (in words)” value was “inactive”, the “WB: % inh. @ 1 μM” value is −2% and the “WB: % inh. @ 10 μM” value was 22%.

`CC1CN(C(=O)Nc2ccccc2)CCN1C(=O)c1cccc(OCCC2CCCCC2)c1` (stereo not drawn) [MGH-CP-710] came in with a GI50 in [1] of 1.04 µM. The Met stab MLM, 15 min in [2] (15 min) worked out at 41%. Moreover, the Met stab MLM, 60 min in data set [2] (60 min) was less than 5%. Also, in data set [3], the “Aq Sol” value is less than 2 µM. In data set [4], the “WB: % inh. @ 1 μM” value amounted to 54% and the “WB: % inh. @ 10 μM” value is listed as 81%. For the same compound, in [5], the “KNS62: value at 1 μM” value was found to be 35 and the “KNS62: value at 10 μM” value stood at 51.

For the compound `O=C(Nc1ccccc1)N1CCN([S+]([O-])c2cccc(OCCc3ccccc3)c2)CC1` (stereo not drawn) [TM100], in [6], the “metabolic stability (in words)” value is listed as “improved metabolic stability”, the half-life was 9.6 min and the microsomal CLint is 72 µL/min/mg. Also, in [7], the half-life came to 5.8 min and the microsomal CLint amounted to 120 µL/min/mg.

Turning to `O=C(Nc1ccccc1)N1CCN(C2(c3cccc(OCCc4ccccc4)c3)COC2)CC1` [TM97], in data set [6], the half-life worked out at 1.7 min and the microsomal CLint came out at 415 µL/min/mg.

Turning to `O=C(Nc1ccccc1)N1CCN(Cc2cccc(OCCC3CCCCC3)c2)CC1` [MGH-CP-715], in data set [1] (1 μM), the “H226: value at 1 μM” value was found to be 16. For the same compound, the “H226: value at 10 μM” value in data set [1] (10 μM) was determined as 69. The “% Parent remained MLM, 15 min” value in [2] (15 min, Table G2) is given as 66%. Also, the Met stab MLM, 15 min in data set [2] (15 min) worked out at 66%. In addition, the “% Parent remained MLM, 60 min” value in data set [2] (60 min, Table G2) worked out at 15%. The Met stab MLM, 60 min in data set [2] (60 min) was 15%. Besides, in [3], the “Aq Sol” value is less than 2 µM. Further, in data set [4], the “WB: % inh. @ 1 μM” value stood at 35% and the “WB: % inh. @ 10 μM” value is given as 95%. Besides, in [5], the “KNS62: value at 1 μM” value was 4 and the “KNS62: value at 10 μM” value came to 57. The “F (oral bioavailability)” value in [8] (10 mg/Kg PO versus 1 mg/Kg IV) was roughly 5.7%. Also, the bioavailability in [8] (male, CD-1, mouse, in vivo, oral, 10 mg/Kg, 10 mg/Kg PO versus 1 mg/Kg IV, read-out: F (oral bioavailability)) was roughly 5%. In data set [8] (setting [17]), the AUC(0-t) was found to be 663 ng·h/mL, the MRT is 88.2 min, the clearance was 22.6 mL/min/kg and the AUC(0-inf) came out at 736 ng·h/mL. Besides, the half-life in data set [8] (setting [17]) is 223 min. Moreover, in [8] (male, CD-1, mouse, in vivo, 1 mg/Kg IV, read-out: C0/Cmax (C0)), the Cmax was 834 ng/mL. In addition, the Vd in [8] (male, CD-1, mouse, in vivo, 1 mg/Kg IV, read-out: VSS) is 3.61 L/kg. Moreover, in [8] (setting [18]), the AUC(0-t) stood at 394 ng·h/mL, the MRT came to 157 min, the Tmax was 15 min and the AUC(0-inf) turned out to be 422 ng·h/mL. For the same compound, the half-life in data set [8] (setting [18]) is 112 min. For the same compound, the Cmax in [8] (male, CD-1, mouse, in vivo, 10 mg/Kg PO, read-out: C0/Cmax (Cmax)) came out at 108 ng/mL. In [8] (mouse, in vivo), the “clearance (in words)” value is “low” and the “volume of distribution (in words)” value was “high”.

The compound `O=C(NCCc1cccc(F)c1)C1CCN(C(=O)Oc2ccccc2)CC1` showed a logD in data set [9] of 2.59. In addition, the intrinsic metabolic clearance (CLint scaled) in data set [10] is 54 mL/min/kg; in data set [11], 87 mL/min/kg.

Take `O=C(Nc1ccccc1)N1CCN(C(=O)c2cccc(OCCC3CCOCC3)c2)CC1` [TM45, N-phenyl-4-(3-(2-(tetrahydro-2H-pyran-4-yl)ethoxy)benzoyl)piperazine-1-carboxamide]: in data set [6], the half-life is 11.2 min and the microsomal CLint was 62 µL/min/mg. Also, in [12], the “H226 anti-proliferative potency relative to TM2 (in words)” value was “less potent than TM2”. Besides, in data set [13], the “inhibition of TEAD2 auto-palmitoylation (in words)” value is given as “significantly decrease the activities”.

For the compound `Nc1ccc(NC(=O)N2CCN(C(=O)c3cccc(OCCC4CCCCC4)c3)CC2)cc1` [TM112, N-(4-aminophenyl)-4-(3-(2-cyclohexylethoxy)benzoyl)piperazine-1-carboxamide], in data set [12], the “H226 anti-proliferative potency relative to TM2 (in words)” value is listed as “less potent than TM2”.

In turn, `C[C@@H]1CN(C(=O)Nc2ccccc2)[C@@H](C)CN1C(=O)c1cccc(OCCC2CCCCC2)c1` [MGH-CP-709] returned a GI50 in [1] of 1.97 µM. Moreover, the Met stab MLM, 15 min in data set [2] (15 min) came to 26%. Also, in [2] (60 min), the Met stab MLM, 60 min was less than 5%. Also, the “Aq Sol” value in data set [3] was 2 µM. Further, in [4], the “WB: % inh. @ 1 μM” value was 45% and the “WB: % inh. @ 10 μM” value is listed as 77%. In [5], the “KNS62: value at 1 μM” value came to 28 and the “KNS62: value at 10 μM” value was found to be 46.

Turning to `O=C(Oc1ccccc1)N1CCN(Cc2cccc(OCCC3CCCCC3)c2)CC1` [MGH-CP-718], the Met stab MLM, 15 min in [2] (15 min) amounted to 59%. The Met stab MLM, 60 min in [2] (60 min) is 13%. For the same compound, in data set [2] (mouse, microsomes), the “MLM stability (in words)” value was “moderately stable”. In addition, in [4], the “activity in primary assay (in words)” value was “inactive”, the “WB: % inh. @ 1 μM” value is on record as −4% and the “WB: % inh. @ 10 μM” value is recorded as 11%.

As to `Nc1cccc(NC(=O)N2CCN(C(=O)c3cccc(OCCC4CCCCC4)c3)CC2)c1` [TM93], in [6], the “metabolic stability (in words)” value is “improved metabolic stability”, the half-life was 16.7 min and the microsomal CLint amounted to 41 µL/min/mg. Besides, in data set [7], the half-life is 11.1 min and the microsomal CLint is 62 µL/min/mg.

`O=C(Nc1ccccc1)N1CCN(C(=O)c2ccnc(OCCC3CCCCC3)c2)CC1` [MGH-CP-716]: in data set [1], the “activity in cellular assays (in words)” value is recorded as “active” and the GI50 is 0.236 µM. Moreover, the “MLM stability (in words)” value in data set [2] is on record as “not improved”. Further, the Met stab MLM, 15 min in data set [2] (15 min) turned out to be 40%. Further, the Met stab MLM, 60 min in data set [2] (60 min) is less than 5%. In data set [4], the “WB: % inh. @ 1 μM” value amounted to 59% and the “WB: % inh. @ 10 μM” value came to 96%. Further, in [5], the “KNS62: value at 1 μM” value came out at 54 and the “KNS62: value at 10 μM” value is listed as 60.

Consider `NC(=O)c1cncc(OC(=O)N2CCC(CCc3cccc(C(=O)N4CCCC4)c3)CC2)c1`, for which the logD in [14] worked out at 2.6. Also, the figures for the CLint scaled in data set [15] and in data set [16] were 86 mL/min/kg and 90 mL/min/kg, respectively.

On to `O=C(Nc1ccccc1)C1CCN(C(=O)Oc2cccnc2)CC1`, for which, in data set [9], the logD was 2.16. For the same compound, the CLint human result in [10] is listed as “no depletion (stable)”. The compound also displayed a CLint scaled in data set [11] of 47 mL/min/kg.

`O=C(Nc1ncccn1)N1CCN(C(=O)c2cccc(OCCC3CCCCC3)c2)CC1` [TM23] had a logD in [9] of 2.38. In addition, the CLint scaled was 109 mL/min/kg in data set [10] and 156 mL/min/kg in data set [11].

The values above are taken from patent US20240279191A1, “SMALL MOLECULE INHIBITORS OF TEAD-YAP” (The General Hospital Corporation, priority 2021, published 2024).
